According to EP1431294A1, “VASCULAR WALL-SELECTIVE ACAT INHIBITOR” (Kowa Company Ltd., priority 2001, dated 2003):

How the values were obtained:
ACAT [1] = molecular target: T1, ACAT (Mus musculus, UniProt Q61263); test: ACAT inhibitory activity test in J774 cells (anti-foaming action); assay type: cell-based
T1 construct: J774 cells or HepG2 cells were sown on a 24-well plate; endogenous in cells; host or cells: J774 cells
T1 sequence (Q61263 1-540): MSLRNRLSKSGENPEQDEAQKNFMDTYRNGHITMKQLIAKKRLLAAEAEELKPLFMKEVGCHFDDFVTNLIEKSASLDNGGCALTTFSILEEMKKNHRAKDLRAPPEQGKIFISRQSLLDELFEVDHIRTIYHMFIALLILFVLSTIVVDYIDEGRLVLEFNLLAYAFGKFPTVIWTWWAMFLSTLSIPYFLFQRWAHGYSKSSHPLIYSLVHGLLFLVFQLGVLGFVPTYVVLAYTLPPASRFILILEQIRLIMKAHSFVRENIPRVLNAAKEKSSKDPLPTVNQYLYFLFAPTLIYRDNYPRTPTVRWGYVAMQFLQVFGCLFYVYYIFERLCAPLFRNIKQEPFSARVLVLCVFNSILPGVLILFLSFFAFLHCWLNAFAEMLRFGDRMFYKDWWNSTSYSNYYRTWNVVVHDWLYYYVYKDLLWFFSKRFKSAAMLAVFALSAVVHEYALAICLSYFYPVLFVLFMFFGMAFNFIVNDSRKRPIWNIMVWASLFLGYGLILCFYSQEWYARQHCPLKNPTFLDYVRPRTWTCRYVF
Procedure: (§1) J774 cells or HepG2 cells were sown on a 24-well plate and incubation was carried out at 37°C for 24 hours in a 5% CO2 incubator using a Dulbecco's modified Eagle's medium for J774 cells and an Eagle's minimum essential medium for HepG2 cells (where both media contained 10% of fetal bovine serum). […] The medium was taken out, washed with PBS twice, extracted with 1.5 mL of hexane-isopropanol (3:2) and concentrated to dryness. The extract was dissolved in isopropanol containing 0.2 mL of 10% Triton X-100 and then total cholesterol (TC) and free cholesterol (FC) were determined by a Cholesterol E Test Wako (Wako Pure Chemical) and a Free Cholesterol E Test Wako (Wako Pure Chemical), respectively. The residue of the cell after extraction was solubilized with 0.25 mL of 2N NaOH at 37°C for 30 minutes and protein was determined by a BCA Protein Assay Reagent (Pierce). From the differencebetween TC and FC, amount of cholesterolester per protein was calculated and, from the comparative calculation with the control, IC50 value was determined.

ACAT [2] = test: ACAT inhibitory activity test in HepG2 cells; assay type: cell-based; conditions: 25-hydroxycholesterol 10 µg/mL, 18 hours, cholesterol ester per protein
Procedure: as §1

[3] = Oral absorption test in rats under a fed condition (plasma concentration); assay type: in vivo; conditions: for AUC(0-inf) / Cmax: rat, plasma, po, 30 mg/kg, rats, fed, oral 30 mg/kg
Procedure: A solution of the compound of the present invention (dissolved in a mixture of water : PEG 400 = 1:4) or a suspension in 0.5% methyl cellulose (MC) was compulsorily administered per os at. the dose of 30 mg/kg to three rats under a fed condition. Blood after the administration was periodically collected and its concentration in plasma was measured.
The organic layer (upper layer) was collected, the solvent was evaporated in a nitrogen stream, the residue was dissolved in 0.2 mL of a mobile phase (refer to the following) and 80 µL thereof were measured under the following analytical conditions.
The organic layer was collected, the solvent was evaporated in a nitrogen stream, the residue was dissolved in 0.2 mL of a mobile phase (refer to the following) and 80 µL thereof were measured under the following condition for high-performance liquid chromatography. Condition for detection: • (Detector: Single-stage quadrupole mass spectrometer • Ionization method: Atmospheric pressure chemical ionization method • Temperature of nebulizer: 475°C • Corona voltage: 3 kV • Monitoring ion: m/z 569 (hydrogen addition ion of the compound of Example 78), 549 (hydrogen addition ion of the compound of Example 85)) Condition for separation: • (Column: Symmetry RP8 manufactured by Waters (3.0 mmφ × 150 mm) • Temperature of column: 45°C • Mobile phase: a solution where 0.1% ammonium formate (pH 4)/methanol/acetonitrile are mixed in […] • Flow rate: 0.8 mL/min)
To 150 µL of plasma were added a 0.1 mol/L aqueous solution of sodium hydroxide and 0.2 mL of an analogous compound (500 ng/mL of the compound of Example 28 of the Japanese Patent Application No. 8/158,743, i.e. 8-(benzimidazol-2-ylthio)-N-(2,6-diisopropylphenyl)octanamide as an internal standard, stirred and extracted with 6 mL of an isopropanol/hexane (5: 95) solution. The organic layer was collected, the solvent was evaporated in a nitrogen stream, the residue was dissolved in 0.2 mL of a mobile phase (refer to the following) and 80 µL thereof were measured under the following condition for high-performance liquid chromatography.

[4] = Water solubility in liquid I of the Japanese Pharmacopoeia; assay type: physicochemical
[5] = test system: lipid-loaded model of F1B hamster; test: Arteriosclerotic model animal test (lipid-loaded F1B hamster); conditions: for CE/FC Adrenal Gland / CE/FC Lipid Accumulation to Artery / CE/FC Liver / CE/FC Small Intestine: ratio to control (1.0)
Procedure: Male hamsters of a Bio F1B strain purchased from Nippon Charles River were randomly grouped so that each group comprised six. As from eight weeks age, they were loaded with a high-fat feed (0.3% of cholesterol and 10% of coconut oil) for ten weeks while the drug was administered by mixing with the feed. After ten weeks, blood was collected and cholesterol in plasma was measured. Further, arterywas excised after fixingbyperfusion with a 10% formalin solution. This was incised, lipid which was accumulated in the artery was stained with Oil Red O and the stained area was measured using an image analyzer.
A high-fat feed (0.3% of cholesterol and 10% of coconut oil) was prepared by way of compounding ratio of cholesterol : coconut oil : feed (CE-2) = 0.03:1:9. Incidentally, a high-fat feed was given to the control group and the administered period was 10 weeks.
Hamster under a non-fasted state was anesthetized, subj ected to an abdominal section to expose the abdominal artery and about 2.5 mL of blood were collected. The collected blood was centrifuged at 3, 000 rpm for 15 minutes to collect the plasma and then total cholesterol (TC) and free cholesterol (FC) in plasma were determined by a Cholesterol E-Test Wako (a cholesterol oxidase DAOS method) and a Free Cholesterol E-Test Wako (a cholesterol oxidase DAOS method), respectively.
About 500 mg of liver, small intestine and adrenal body were excised and washed with a physiological saline solution and lipid concentration in the tissues was measured. In the measurement, 10 mL of chloroform : methanol (2:1) as an extracting solution for lipid in the tissue were placed in the liver and the small intestine, homogenized at 3,000 rpm using a Polytron Homogenizer PT 3100 and allowed to stand at 4°C for one night. The extract was centrifuged at 1,500 rpm for 15 minutes, 0.2 mL of the supernatant liquid was evaporated to dryness using a vacuum pump, the residue was dissolved in 50 µL of isopropanol and each lipid was subjected to the same kits whereupon TC and FC were quantified. With regard to the adrenal body, it was finely cut using scissors and 0.5 mL of chloroform : methanol (2:1) was added thereto followed by being allowed to stand at 4°C for one night. That was centrifuged at 1,500 rpm for 15 minutes, 0.2 mL of the supernatant liquid was evaporated to dryness using a vacuum pump, the residue was dissolved in 50 µL of isopropanol and each lipid was subjected to the same kits whereupon TC and FC were quantified.
With regard to the total cholesterol (TC) in plasma in the group to which the drug was administered, the relative ratio to TC in the control group was used as an indicator while, with regard to the tissue, difference between TC and FC was defined as CE (cholesterol ester) and the lipid-constituting ratio, CE/FC, in each organ was determined whereupon their relative ratio to each control was calculated and used as an indicator. Thus, in those indicators, the control group was defined as 100% and the calculation using the following formula was carried out so as to use a plasma TC lowering action by ACAT inhibitory action to liver and small intestine of the group to which the drug was administered as an indicator and also to use the variation of CE/FC ratio by an ACAT inhibitory action to each organ as an indicator. Indicator (%) for total cholesterol in plasma = [(TC of drug-administered group)/(TC of the control group)] × 100 [formula] Indicator (%) for lipid constituting ratio in each organ = [(CE/FC of drug-administered group)/(CE/FC of the control group)] × 100 [formula]
After collection of the blood, a 18-G injection needle was inserted into apex and perfused with a physiological saline solution (120 mmHg) for about 5minutes. It was further perfused with a 10% neutral formalin buffer (120 mmHg) for about 5 minutes. Bulbar and thoracic artery was excised and fixed in a 10% formalin buffer.

[6] = dose 10 mg/kg in feed, 10 weeks
[7] = dose 30 mg/kg in feed, 10 weeks
[8] = dose 100 mg/kg in feed, 10 weeks

With `CC(C)c1cc(O)cc(C(C)C)c1NC(=O)CN1CCN(CCSc2nc3cccc(C(F)(F)F)c3o2)CC1.Cl` [Compound of the Invention, 2-[4-[2-(7-trifluoromethylbenzoxazol-2-ylthio)ethyl]piperazin-1-yl]-N-(2,6-diisopropyl-4-hydroxyphenyl)acetamide hydrochloride] the “macrophage selectivity (IC50 (HepG2)/IC50 (J774))” value (ACAT [1]) was “about 45 fold”, the IC50 (ACAT [2]) was 2900 nM and the “improvement of oral absorption” value ([3]; compared with Example 85, medium 0.5% methyl cellulose (MC) suspension, rats 30 mg/kg) was “about 9.4 fold”. The “increase in oral absorption” value ([3]; compared with Example 85, medium water/PEG 400 (1:4), rats 30 mg/kg) was “about 8 fold”, the AUC(0-inf) ([3]; medium 0.5% MC Suspension) was 639 ng·h/mL and the Cmax ([3]; medium 0.5% MC Suspension) was 167 ng/mL. It also gave an AUC(0-inf) ([3]; medium PEG 400: Water (4:1)) of 486 ng·h/mL, a Cmax ([3]; medium PEG 400: Water (4:1)) of 141 ng/mL and an increase of solubility ([4]; compared with the lead compound (Example 85)) of 5 fold. For the same compound, the solubility ([4]; pH 1.2, simulated gastric fluid) was 500 µg/mL, the “dose from which suppression of lipid accumulation was effective” value ([5]; F1B hamsters, drug in high-fat feed, 10 weeks) was ≥ 3 mg/kg and the “plasma cholesterol at doses effective in suppression of lipid accumulation” value ([5]; F1B hamsters, total cholesterol in plasma relative to control, Dunnett's test) was “without a significant decrease of plasma cholesterol”. For the same compound, the “CE/FC Adrenal Gland” value ([5]; dose 3 mg/kg in feed, 10 weeks) was 1.02, the “CE/FC Lipid Accumulation to Artery” value ([5]; dose 3 mg/kg in feed, 10 weeks) was 0.69 and the “CE/FC Liver” value ([5]; dose 3 mg/kg in feed, 10 weeks) was 1.08. For the same compound, the “CE/FC Small Intestine” value ([5]; dose 3 mg/kg in feed, 10 weeks) was 1.16, the “CE/FC Adrenal Gland” value [5, 6] was 1.11 and the “CE/FC Lipid Accumulation to Artery” value [5, 6] was 0.33. The “CE/FC Liver” value [5, 6] was 0.88, the “CE/FC Small Intestine” value [5, 6] was 1.02 and the “CE/FC Adrenal Gland” value [5, 7] was 0.89. The “CE/FC Lipid Accumulation to Artery” value [5, 7] was 0.21, the “CE/FC Liver” value [5, 7] was 0.60 and the “CE/FC Small Intestine” value [5, 7] was 0.91. The “CE/FC Adrenal Gland” value [5, 8] was 0.52, the “CE/FC Lipid Accumulation to Artery” value [5, 8] was 0.17 and the “CE/FC Liver” value [5, 8] was 0.24. For the same compound, the “CE/FC Small Intestine” value [5, 8] was 0.20.
